From PubChem BioAssay (NCI)
Values joined by “and” are separate entries in the source; they are usually repeats but may differ in a detail not shown here. Equal values may be shown once.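 Test compounds were applied to cells in 96-well plates for 48 hours at 5 doses. Here, GI50 denotes the concentration required for 50% inhibition of growth. The concentration for full growth arrest is given as TGI.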

What was measured:
Test in all cases: NCI anticancer screen, dose series, 48 h
OVCAR-3 ovarian = tested on: OVCAR-3 ovarian
SNB-19 CNS = tested on: SNB-19 CNS
TK-10 renal = tested on: TK-10 renal
HOP-92 NSCLC = tested on: HOP-92 NSCLC
RPMI-8226 leukemia = tested on: RPMI-8226 leukemia
UACC-257 melanoma = tested on: UACC-257 melanoma
OVCAR-4 ovarian = tested on: OVCAR-4 ovarian
A549 NSCLC = tested on: A549 NSCLC
SNB-75 CNS = tested on: SNB-75 CNS
OVCAR-5 ovarian = tested on: OVCAR-5 ovarian

Compound	GI50 (OVCAR-3 ovarian)	TGI (OVCAR-3 ovarian)	GI50 (SNB-19 CNS)	TGI (SNB-19 CNS) [µM]	GI50 (TK-10 renal)	TGI (TK-10 renal)	GI50 (HOP-92 NSCLC) [µM]	TGI (HOP-92 NSCLC)	GI50 (RPMI-8226 leukemia)	TGI (RPMI-8226 leukemia)	GI50 (UACC-257 melanoma)	TGI (UACC-257 melanoma) [µM]	GI50 (OVCAR-4 ovarian)	TGI (OVCAR-4 ovarian) [µM]	GI50 (A549 NSCLC)	TGI (A549 NSCLC) [µM]	GI50 (SNB-75 CNS) [µM]	TGI (SNB-75 CNS) [µM]	GI50 (OVCAR-5 ovarian)	TGI (OVCAR-5 ovarian) [µM]
COc1cc(/C=C/C(=O)c2c(-c3ccc(Cl)cc3)nc3sc(C)nn23)cc(OC)c1OC	35.7 µM	> 100 µM	> 100 µM	> 100	27.1 µM	> 100 µM	3.48	25.1 µM	1.82 µM	5.78 µM	16 µM	> 100	31.8 µM	> 100	49.5 µM	> 100	12.8	33.7	> 100 µM	> 100
COC(=O)C(NC(=O)c1ccccc1)c1ccc(OC)c(I)c1 (stereo unspecified)	37.4 µM	88.2 µM	> 100 µM	> 100	38.5 µM	> 100 µM	58.6	> 100 µM	44.2 µM	> 100 µM	48.3 µM	> 100	94.2 µM	> 100	62.1 µM	> 100	56.7	> 100	> 100 µM	> 100
CC(C)c1nc(Cl)c(Cl)c(Cl)n1	–	8.2 µM	–	36.2	–	28.8 µM	–	14.2 µM	–	14.7 µM	–	17.8	–	39.1	–	> 41.3	–	25.8	–	17.7
OCCn1c(-c2ccncc2)c(-c2ccc(F)cc2)c2ncccc21	> 25 µM	> 25 µM	> 25 µM	> 25	> 25 µM	> 25 µM	9.5	> 25 µM	> 25 µM	> 25 µM	> 25 µM	> 25	> 25 µM	> 25	> 25 µM	> 25	> 25	> 25	> 25 µM	> 25
CC(=O)Nc1ccc(C(=O)COc2cccc(/C=C3\CCc4ccccc4C3=O)c2)cc1	17.4 µM	39.1 µM	17.4 µM	51.7	28.2 µM	> 100 µM	15.1	60.9 µM	1.82 µM	4.97 µM	15.7 µM	39	1.01 µM	26.1	38.1 µM	> 100	13	64.7	19.6 µM	36.3
Cc1c(C(=O)C/C(=N/NC(=O)CC#N)C(N)=O)[n+](=O)c2ccccc2n1[O-]	–	61.8 µM	–	> 100	–	> 100 µM	–	> 100 µM	–	> 100 µM	–	> 100	–	> 100	–	> 100	–	> 100	–	> 100
CS(=O)(=O)Nc1ccc(Nc2c3ccccc3nc3cc(Cl)ccc23)cc1	7.28 µM	21.5 µM	1.51 µM	17.5	5.07 µM	18.7 µM	0.334	4.7 µM	2.56 µM	25.6 µM	3.33 µM	16.7	3.84 µM	21.7	0.188 µM	12.1	1.29	15.9	4.99 µM	22.3
Nc1ccc(N)c2c1C(=O)c1cccc([N+](=O)[O-])c1C2=O	5.19 µM	> 100 µM	2.4 µM	> 30.4	3.21 µM	> 71.8 µM	16.3	> 100 µM	2.82 µM	> 100 µM	0.784 µM	–	11.9 µM	> 100	1.47 µM	–	2.13	24.5	8.19 µM	> 100
CCNc1nc(-c2ccc(Cl)c(OC)c2)c(-c2ccnc(NCCNS(=O)(=O)c3ccc(Cl)cc3)n2)s1	2.45 µM	5.27 µM	4.59 µM	> 100	4.09 µM	41.8 µM	2.64	9.58 µM	2.93 µM	8.39 µM	3.44 µM	49.4	3.82 µM	> 100	3.57 µM	53.6	2.35	29.8	3.67 µM	> 100
CCOC(=O)c1c(/C=N\Nc2ccccc2)nc2ccccc2c1-c1ccccc1	–	> 100 µM	–	> 100	–	> 100 µM	–	> 100 µM	–	83.8 µM	–	> 100	–	> 100	–	> 100	–	> 100	–	> 100
CCC(=C(c1ccc(OCCN(CC)CC)cc1)c1ccc(OCCN(CC)CC)cc1)c1ccc(Cl)cc1	0.577 µM	1.14 µM	0.584 µM	1.09	0.528 µM	1.1 µM	0.5	1.18 µM	0.714 µM	1.64 µM	0.62 µM	1.25	0.714 µM	1.66	0.638 µM	1.31	0.668	2.32	0.559 µM	1.06
Cn1c(=O)c(Oc2ccc(F)cc2F)cc2cnc(NC3CCC(O)CC3)nc21 (stereo unspecified)	> 25 µM	> 25 µM	> 25 µM	> 25	24.6 µM	> 25 µM	0.779	19.3 µM	> 25 µM	> 25 µM	> 25 µM	> 25	> 25 µM	> 25	> 25 µM	> 25	> 25	> 25	> 25 µM	> 25
O=C(NCc1cccnc1)c1ccc([N+](=O)[O-])o1	1.61 µM	6.89 µM	2.89 µM	8.26	3.33 µM	10.4 µM	> 17.2	32.2 µM	4.72 µM	> 32.5 µM	1.13 µM	5.03	6.22 µM	> 19.8	2.54 µM	7.28	1.18	7.24	5.64 µM	18
Oc1ccc(/C=N/Nc2nnc(N/N=C/c3ccc(O)cc3O)c3ccccc23)c(O)c1	0.385 µM	0.489 µM and 1.9 µM	–	7.19	0.526 µM	9.18 µM	0.496	2.65 µM	0.345 µM	0.533 µM and 1.77 µM	1.84 µM	7.73	0.449 µM	5.31	0.67 µM	> 28.7	0.361	1.44	1.36 µM	15.8
O=C(O)C12C3C4C1C1C2C3C41I (stereo unspecified)	–	> 100 µM	–	> 100	–	> 100 µM	–	> 100 µM	–	> 100 µM	–	> 100	–	> 100	–	> 100	–	> 100	–	> 100
O=C(CO[N+](=O)[O-])OCC(=O)c1ccccc1	–	> 100 µM	–	> 100	–	> 100 µM	–	> 100 µM	–	> 100 µM	–	> 100	–	> 100	–	> 100	–	> 100	–	> 100
CC(C)=NO.CC(C)=NO.CC(C)=NO.CC(C)=NO.[Ti]	> 100 µM	> 100 µM	> 100 µM	> 100	> 100 µM	> 100 µM	> 100	> 100 µM	> 100 µM	> 100 µM	> 100 µM	> 100	> 100 µM	> 100	> 100 µM	> 100	> 100	> 100	> 100 µM	> 100
COc1cc2nccc(Oc3ccc(NC(=O)C4(C(=O)Nc5ccc(F)cc5)CC4)cc3)c2cc1OC	> 10 µM and 6.03 µM	> 10 µM and 54 µM	> 10 µM and 7.69 µM	> 100	> 10 µM and 3.76 µM	> 10 µM and 39.5 µM	–	8.01 µM and 1.46 µM	> 10 µM and 4.09 µM	> 57.7 µM	> 10 µM and 4.92 µM	> 74.7	> 10 µM and 3.79 µM	> 62.6	> 10 µM and 3.55 µM	> 61.4	0.27	8.14	> 10 µM and 3.5 µM	> 58.3
O=C1COc2c(CCNCCN(C(=O)CCNCCc3ccc(Cl)c(Cl)c3)C3CCCCC3)ccc(O)c2N1	16.8 µM	32.1 µM	15 µM	31	14.1 µM	28.8 µM	< 0.0353	17.5 µM	14.5 µM	33.8 µM	16.9 µM	33	15 µM	28.9	21.8 µM	44.8	3.65	19.4	13.6 µM	28.4
CC(=O)Nc1ccc(C(=O)NN2C(=O)CSC2c2ccccc2)cc1 (stereo unspecified)	–	> 100 µM	–	> 100	–	> 100 µM	–	> 100 µM	–	> 100 µM	–	> 100	–	> 100	–	> 100	–	> 100	–	> 100
CN(C)C(=O)c1cc2cnc(Nc3ccc(N4CCNCC4)cn3)nc2n1C1CCCC1	21 µM	69.2 µM	14.2 µM	> 100	4.37 µM	> 100 µM	0.867	61.6 µM	2.62 µM	30 µM	15.7 µM	33.4	22.4 µM	86.8	12 µM	41.6	10.2	22	1.45 µM	73.1
O=C1OC(c2ccccc2)=N/C1=C\c1ccc(N(CCCl)CCCl)cc1	–	> 100 µM	–	> 100	–	> 100 µM	–	> 84.6 µM	–	> 100 µM	–	> 100	–	> 100	–	> 100	–	> 100	–	> 100
O=C(COC(=O)[C@H](C[Se][Se]C[C@H](NC(=O)c1ccc(Br)cc1F)C(=O)OCC(=O)c1ccc(F)cc1)NC(=O)c1ccc(Br)cc1F)c1ccc(F)cc1	0.479 µM	1.27 µM	0.444 µM	1.63	0.341 µM	0.9 µM	2.73	6.66 µM	0.132 µM	0.593 µM	1.82 µM	4.39	0.689 µM	1.54	1.03 µM	4.45	0.354	0.964	0.951 µM	2.72
O=[N+]([O-])c1cccc(C2=NOC3CCCC23)c1 (stereo unspecified)	–	> 100 µM	–	> 100	–	> 100 µM	–	> 100 µM	–	> 100 µM	–	> 100	–	> 100	–	> 100	–	> 100	–	> 100
O=C(Nc1ccccc1)Oc1ccccc1C1CCCCC1	–	34.7 µM	–	> 100	–	> 100 µM	–	31.3 µM	–	52 µM	–	40.2	–	37.3	–	88.5	–	39.9	–	> 100
COc1cccc2c(Nc3ccc(C(=O)NCCN4CCNCC4)cc3)cc(-c3ccccc3)nc12	> 100 µM	> 100 µM	53.1 µM	> 100	57 µM	> 100 µM	95	> 100 µM	18 µM	44.3 µM	> 100 µM	> 100	17.4 µM	74.2	> 100 µM	> 100	33.2	> 100	> 100 µM	> 100
CCc1c[nH]c2ncnc(N3CC[C@](N)(CNC(=O)c4ccc(F)cc4F)C3)c12	11.4 µM	> 100 µM	2.04 µM	> 100	1.27 µM	50.4 µM	0.23	7.57 µM	20.8 µM	> 100 µM	9.22 µM	> 100	53.1 µM	> 100	7.36 µM	> 95.5	0.0768	7.97	21.7 µM	> 100
CC(=O)OC1CCC2(C)C(=CCC3C4CC(CN5CC5)C(=O)C4(C)CCC32)C1 (stereo unspecified)	4.63 µM	14.8 µM	14.1 µM	29.5	1.89 µM	3.82 µM	11.3	24.1 µM	1 µM	6.28 µM	12.9 µM	26.4	2.8 µM	9.55	15.3 µM	42.2	10.8	22.7	17.3 µM	33.2
